Experiment [1] deals with H4-III-E cells. The experiment in a line: TAT (tyrosine aminotransferase) assay. The settings on record: for Agonistic activity of 10 μM test compound / activation at 10 µM: 10 μM test compound alone, relative to maximum Dex-induced TAT activity (100%); for Antagonistic activity of 10 μM test compound: 10 μM test compound together with 0.005 μM dexamethasone, inhibitory ratio against TAT activity increase by Dex; for activation at 10 µM: read-out: Agonistic activity of 10 μM test compound. It is filed as cell-based. As for the experimental part:
H4-III-E cells, which had been continuously cultured in α-MEM medium A (supplemented with 10% inactivated FBS, 50 μM 2-mercapto-ethanol), were suspended in α-MEM medium A or α-MEM medium B (supplemented with 10% inactivated FBS, 50 μM 2-mercapto-ethanol, but without phenol red), and the cell suspension was seeded to a 96-well plate in an amount of 2×10^4 cells/100 μl/well, and the cells were cultured overnight. The supernatant in the medium was removed, and a test compound (100 μl, diluted with α-MEM medium A or α-MEM medium B) was added, and the cells were further cultured overnight. In order to measure the agonistic activity, a test compound was added alone, while in order to measure the antagonistic activity, a test compound was added simultaneously together with 0.005 μM dexamethasone and evaluated the extent of the inhibitory effect of said test compound against the TAT activity-inducing activity by dexamethasone.
The culture supernatant in the plate was removed by suction, and a cell lysate (20 μL; 1% NP-40, 0.2% Triton X-100, 0.25% DOC, 0.1% SDS, 1 mM EGTA, 150 mM NaCl, Tris (pH7.4), Protease inhibitor cocktail [2.5 mg/ml aprotinin, 2.5 mg/ml leupeptin, 2.5 mg/ml soybean trypsin inhibitor]) was added, and further thereto was added a TAT reaction reagent (150 μL; 10 N KOH, 0.125 M KH2PO4, 0.5 M α-ketoglutarate, 5 mM Pyridoxal-5′ phosphate, L-tyrosine), and the mixture was reacted at 37° C. for 15 minutes. Further, a 10N KOH (20 μL) was added thereto, and the mixture was reacted at 37° C. for 30 minutes, and the absorbance at 331 nm was measured by a microplate reader (SPECTRA MAX 250).
From the mean absorbance in the wells to which a test compound was added, the mean absorbance in the wells to which a compound and a TAT reaction solution were not added was subtracted.
Agonistic activity (%)=100×[(absorbance of the drug-treated group)−(absorbance of the group without TAT reaction reagent)]/[(absorbance of Dex-treated group)−(absorbance of the group without TAT reaction reagent)]
On the other hand, the antagonistic activity was calculated as follows.
Antagonistic activity (%)=Inhibitory ratio (%) against TAT activity increase by Dex=100−100×[(absorbance of the drug-treated group)−(absorbance of the group without a drug)]/[(absorbance of Dex-treated group)−(absorbance of the group without a drug)]
With regard to the agonistic activity and the antagonistic activity, the results of 10% or more were expressed as O, while the results of less than 10% were expressed as X.

In experiment [2] the target is T1, human GRα protein (Homo sapiens, UniProt P04150).
T1 construct: made in house; host or cells: insect cells infected with baculovirus; cytoplasm fraction used
T1 sequence (P04150 1-777): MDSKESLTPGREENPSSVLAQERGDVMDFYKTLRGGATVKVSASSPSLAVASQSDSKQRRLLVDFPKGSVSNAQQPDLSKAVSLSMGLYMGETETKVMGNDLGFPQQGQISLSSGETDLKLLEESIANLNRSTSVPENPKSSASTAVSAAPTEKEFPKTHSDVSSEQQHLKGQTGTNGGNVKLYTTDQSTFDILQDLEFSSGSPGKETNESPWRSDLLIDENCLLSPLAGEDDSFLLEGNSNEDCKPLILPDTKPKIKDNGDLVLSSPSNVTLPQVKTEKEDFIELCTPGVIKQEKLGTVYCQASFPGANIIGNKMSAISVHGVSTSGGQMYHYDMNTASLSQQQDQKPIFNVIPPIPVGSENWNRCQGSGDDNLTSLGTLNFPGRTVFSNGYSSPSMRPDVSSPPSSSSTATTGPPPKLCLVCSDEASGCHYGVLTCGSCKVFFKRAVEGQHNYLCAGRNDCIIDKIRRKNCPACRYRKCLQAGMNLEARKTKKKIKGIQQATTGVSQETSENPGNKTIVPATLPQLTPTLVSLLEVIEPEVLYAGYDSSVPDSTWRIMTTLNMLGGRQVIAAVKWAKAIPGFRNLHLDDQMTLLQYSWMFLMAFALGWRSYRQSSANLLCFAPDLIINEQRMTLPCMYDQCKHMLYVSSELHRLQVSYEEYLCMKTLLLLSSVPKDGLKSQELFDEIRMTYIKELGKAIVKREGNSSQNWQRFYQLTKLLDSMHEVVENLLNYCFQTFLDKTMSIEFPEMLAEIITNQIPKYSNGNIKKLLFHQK
The experiment is described as follows: Binding inhibitory assay (displacement of 3H-dexamethasone from the cytoplasm fraction of baculovirus-infected insect cells). The settings on record: 100 nM test compound; 3H-Dex; NSB with 10 μM dexamethasone; read-out: Binding Inhibitory ratio (%) of 100 nM of test compound. How it is done: Insect cells, which had been infected with baculovirus for expressing human GRα protein, were suspended in an approximately equal volume of a binding buffer (10 mM Tris-Cl, 1.5 mM EDTA, 10% glycerol, 5 mM DTT, 20 mM sodium molybdate, pH 7.6). The mixture was rapidly frozen with liquid nitrogen, and then melted at room temperature. This cycle was repeated totally twice in order to break the cell membrane. The mixture was ultracentrifuged under 100,000 g at 4° C. for one hour to give the supernatant, which was the cytoplasm fraction containing human GRα protein.
A polypropylene 96-well plate (manufactured by Costar Corporation, etc.) was placed on ice, and DMSO or a test compound (each 1 μl) was put into each well. A 10 nM ^3H-Dex solution (50 μl; tritiated dexamethasone; manufactured by Amersham) in the binding buffer, and a GR protein solution, i.e., a solution by diluting the above cytoplasm fraction with the binding buffer (50 μl) were added to each well, and the plate was lightly shaken with a plate mixer, and then left to stand at 4° C. for 16 to 20 hours (the final concentration of DMSO: 1%).
A 5% solution of dextran-coated active carbon (manufactured by Sigma) suspended in the binding buffer (50 μl) was put into each well, and the plate was lightly shaken with a plate mixer for 30 seconds. Then, the plate was centrifuged at 2500 rpm at 4° C. for 5 minutes, and the ^3H count in the supernatant (50 μl) was measured by a TopCount (manufactured by Perkin-Elmer Corporation). Each test compound was tested twice.
The binding activity was calculated as follows. The mean ^3H count in the presence of dexamethason (Dex) 10 μM was considered as NSB (non-specific binding), and the binding inhibitory ratio in each well was calculated by the following equation.
Binding Inhibitory Ratio (%)=100×{1−(cpm value of each well−NSB)/(mean cpm value of DMSO-well−NSB)}
(cpm means count per minute)
The mean binding inhibitory ratio of each well was calculated by the above equation to give a binding inhibitory ratio of each test compound.
A general note: Displacement assays read how much labelled ligand stays bound in the presence of the test substance.

Experimental findings from patent US20100190768A1, “NOVEL FUSED PYROLE DERIVATIVE” (Dainippon Sumitomo Pharma Co., Ltd., priority 2005, published 2010) are described below.

As for `O=C(c1cccs1)N1CCN(CC(O)(c2cn(Cc3ccccc3)c3cc([N+](=O)[O-])ccc23)C(F)(F)F)CC1` (stereo not drawn) [Example 106, 2-(1-Benzyl-6-nitro-1H-indol-3-yl)-1,1,1-trifluoro-3-[4-(2-thienylcarbonyl)-piperazin-1-yl]propan-2-ol], in experiment [1], the “Agonistic activity of 10 μM test compound” value is reported as “◯” and the “Antagonistic activity of 10 μM test compound” value (“Antagonistic activity” below) is “◯”. Besides, the inhibition at 0.1 µM in experiment [2] came out at 101%.
With `O=[N+]([O-])c1ccc2c(C(O)(CN3CCN(S(=O)(=O)c4ccccc4)CC3)C(F)(F)F)cn(Cc3ccccc3)c2c1` (stereo not drawn) [Example 112, 2-(1-Benzyl-6-nitro-1H-indol-3-yl)-1,1,1-trifluoro-3-[4-(phenylsulfonyl)piperazin-1-yl]propan-2-ol], in experiment [1], the activation at 10 µM was less than 10% and the “Antagonistic activity” value is “◯”. Moreover, the inhibition at 0.1 µM in experiment [2] stood at 98%.
Consider `O=[N+]([O-])c1ccc2c(C(O)(CN3CCC(Oc4ccccc4Cl)CC3)C(F)(F)F)cn(Cc3ccccc3)c2c1` (stereo not drawn) [Example 119, 2-(1-Benzyl-6-nitro-1H-indol-3-yl)-3-[4-(2-chlorophenoxy)piperidin-1-yl]-1,1,1-trifluoropropan-2-ol], for which, in experiment [1], the “Agonistic activity of 10 μM test compound” value is reported as “◯” and the “Antagonistic activity” value was “◯”. The inhibition at 0.1 µM in experiment [2] worked out at 78%.
Regarding `O=[N+]([O-])c1ccc2c(C(O)(CN3CCS(=O)(=O)CC3)C(F)(F)F)cn(Cc3ccccc3)c2c1` (stereo not drawn) [Example 120, 2-(1-Benzyl-6-nitro-1H-indol-3-yl)-3-(1,1-dioxidothiomorpholin-4-yl)-1,1,1-trifluoropropan-2-ol], in experiment [1], the “Agonistic activity of 10 μM test compound” value is listed as “◯” and the “Antagonistic activity” value is “◯”. The inhibition at 0.1 µM in experiment [2] turned out to be 97%.
With `O=[N+]([O-])c1ccc2c(C(O)(CN3CCC4(CC3)CS(=O)(=O)c3ccccc3O4)C(F)(F)F)cn(Cc3ccccc3)c2c1` (stereo not drawn) [Example 123, 2-(1-Benzyl-6-nitro-1H-indol-3-yl)-3-(4,4-dioxido-1′H-spiro[1,4-benzoxathiine-2,4′-piperidin]-1′-yl)-1,1,1-trifluoropropan-2-ol], in experiment [1], the activation at 10 µM is less than 10% and the “Antagonistic activity” value is on record as “◯”. In experiment [2], the inhibition at 0.1 µM was found to be 72%.
As to `O=[N+]([O-])c1ccc2c(C(O)(CN3CCC4(CC3)CNc3ccccc3O4)C(F)(F)F)cn(Cc3ccccc3)c2c1` (stereo not drawn) [Example 128, 2-(1-Benzyl-6-nitro-1H-indol-3-yl)-3-(3,4-dihydro-1′H-spiro[1,4-benzoxazine-2,4′-piperidin]-1′-yl)-1,1,1-trifluoropropan-2-ol], the activation at 10 µM in experiment [1] was less than 10%. Moreover, the inhibition at 0.1 µM in experiment [2] was determined as 64%.
The matching figures for `COCCNCC(O)(c1cn(Cc2ccccc2)c2cc([N+](=O)[O-])ccc12)C(F)(F)F` (stereo not drawn) [Example 131, 2-(1-Benzyl-6-nitro-1H-indol-3-yl)-1,1,1-trifluoro-3-[(2-methoxyethyl)amino]-propan-2-ol]: less than 10% and 84%.
With `O=[N+]([O-])c1ccc2c(C(O)(CNCCOc3ccccc3)C(F)(F)F)cn(Cc3ccccc3)c2c1` (stereo not drawn) [Example 133, 2-(1-Benzyl-6-nitro-1H-indol-3-yl)-1,1,1-trifluoro-3-[(2-phenoxyethyl)amino]-propan-2-ol], in experiment [1], the activation at 10 µM was less than 10% and the “Antagonistic activity” value is “◯”. In addition, in experiment [2], the inhibition at 0.1 µM amounted to 51%.
`O=[N+]([O-])c1ccc2c(C(O)(CNCc3ccccc3)C(F)(F)F)cn(Cc3ccccc3)c2c1` (stereo not drawn) [Example 137, 3-(Benzylamino)-2-(1-benzyl-6-nitro-1H-indol-3-yl)-1,1,1-trifluoropropan-2-ol]: in experiment [1], the “Agonistic activity of 10 μM test compound” value is “◯” and the “Antagonistic activity” value was “◯”. Besides, the inhibition at 0.1 µM in experiment [2] was 92%.
Consider `O=[N+]([O-])c1ccc2c(C(O)(CNCC3CCCO3)C(F)(F)F)cn(Cc3ccccc3)c2c1` (stereo not drawn) [Example 140, 2-(1-Benzyl-6-nitro-1H-indol-3-yl)-1,1,1-trifluoro-3-[(tetrahydrofuran-2-yl-methyl)amino]propan-2-ol], for which, in experiment [1], the activation at 10 µM is less than 10% and the “Antagonistic activity” value is given as “◯”. Also, in experiment [2], the inhibition at 0.1 µM amounted to 80%.
On to `COc1cccc(N2CCN(CC(O)(c3cn(Cc4ccccc4)c4cc([N+](=O)[O-])ccc34)C(F)(F)F)CC2)c1` (stereo not drawn) [Example 144, 2-(1-Benzyl-6-nitro-1H-indol-3-yl)-1,1,1-trifluoro-3-[4-(3-methoxyphenyl)-piperazin-1-yl]propan-2-ol], for which, in experiment [1], the “Agonistic activity of 10 μM test compound” value is recorded as “◯” and the “Antagonistic activity” value is “◯”. Moreover, the inhibition at 0.1 µM in experiment [2] stood at 97%.
As for `O=[N+]([O-])c1ccc2c(C(O)(Cn3cccn3)C(F)(F)F)cn(Cc3ccccc3)c2c1` (stereo not drawn) [Example 150, 2-(1-Benzyl-6-nitro-1H-indol-3-yl)-1,1,1-trifluoro-3-(1H-pyrazol-1-yl)propan-2-ol], in experiment [1], the “Agonistic activity of 10 μM test compound” value was “◯” and the “Antagonistic activity” value is “◯”. Moreover, the inhibition at 0.1 µM in experiment [2] was determined as 98%.
Regarding `O=C(N1CCOCC1)C(O)(c1cn(Cc2ccccc2)c2ccccc12)C(F)(F)F` (stereo not drawn) [Example 152, 2-(1-Benzyl-1H-indol-3-yl)-1,1,1-trifluoro-3-morpholin-4-yl-3-oxopropan-2-ol], the activation at 10 µM in experiment [1] is less than 10%. Further, in experiment [2], the inhibition at 0.1 µM came to 50%.
